Here are results for 1 molecule from patent US20180119123A1, “CRISPR/CAS-RELATED METHODS AND COMPOSITIONS FOR TREATING HIV INFECTION AND AIDS” (EDITAS MEDICINE, INC., priority 2015, published 2018).

“Also recorded” adds a separate entry of the source.

The test system of this assay is human mobilized peripheral blood CD34^+ HSCs. The assay is described as follows: Viability by 7-AAD / Annexin-V flow cytometry 96 hours after Nucleofection. Type of assay: cell-based. The method, then: Human CD34^+ HSCs cells from mobilized peripheral blood (AllCells) were thawed into StemSpan Serum-Free Expansion Medium (SFEM™, StemCell Technologies) containing 100 ng/mL each of the following cytokines: human stem cell factor (SCF), thrombopoietin (TPO), and flt-3 ligand (FL) (all from Peprotech). Cells were grown for 3 days in a humidified incubator and 5% CO2 20% O2. […] The published use of UM171 involved prolonged exposure of HSCs to the small molecule for ex vivo expansion of HSCs. In the current experiment, HSCs were exposed to UM171 for 2 hours before and 24 hours after delivery of Cas9 and gRNA plasmid DNA. This UM171 treatment protocol was based on pilot studies performed by the inventors that indicated acute pre-treatment with UM171 before lentivirus vector mediated gene delivery improved HSC viability compared to HSCs treated with vehicle (dimethylsulfoxide, DMSO, Sigma) alone. […] At 96 hours after Nucleofection™, CD34^+ cells were counted for by trypan blue exclusion and divided into 3 portions for the following analyses: a) flow cytometry analysis for assessment of viability by co-staining with 7-Aminoactinomycin-D (7-AAD) and allophycocyanin (APC)-conjugated Annexin-V antibody (ebioscience); b) flow cytometry analysis for maintenance of HSC phenotype (after co-staining with phycoerythrin (PE)-conjugated anti-human CD34 antibody and fluorescein isothicyanate (FITC)-conjugated anti-human CD90, both from BD Bioscience; c) hematopoietic colony forming cell (CFC) analysis by plating 1500 cells in semi-solid methylcellulose based Methocult medium (StemCell Technologies) that supports differentiation of erythroid and myeloid blood cell colonies from HSCs and serves as a surrogate assay to evaluate HSC multipotency and differentiation potential ex vivo; d) genomic DNA analysis for detection of editing at the CCR5 locus. […]
(In general: In flow cytometry, cells or beads pass a laser one at a time.)

Regarding `Cn1nnc(-c2ccc3c(c2)[nH]c2nc(Cc4ccccc4)nc(N[C@H]4CC[C@H](N)CC4)c23)n1` [UM171, (1r,4r)-N1-(2-benzyl-7-(2-methyl-2H-tetrazol-5-yl)-9H-pyrimido[4,5-b]indol-4-yl)cyclohexane-1,4-diamine], for the setting “40 nM UM171, 2 hours before and 24 hours after Nucleofection with Cas9 and CCR5-U43 gRNA plasmid DNA”, the “Effect of UM171 on CD34+ HSC viability, survival and proliferation after Nucleofection” value was “preserved CD34^+ HSC viability; also recorded: critical for maintenance of HSC survival and proliferation”. Also, the “Effect of UM171 on HSC survival and proliferation after Nucleofection” value (pre-treatment and short-term (24-hour) co-culture, Cas9 and CXCR4 gRNA plasmid DNA) is “critical for maintenance of HSC survival and proliferation”.
